Reference: patent US20230027066A1 (Urovant Sciences GmbH, priority 2019, published 2023)

How the values were obtained:
[1] = 40-week extension study (52 weeks), adverse events
From the text: Approximately 500 men and women with overactive bladder who completed 12 weeks in the parent study were permitted to enroll, at approximately 110 study sites in the U.S.
Secondary endpoints were evaluation of CFB at Week 52 in average number of micturitions, Urge Urinary Incontinence (UUI) episodes, urgency episodes, and total urinary incontinence episodes. All CFB calculations used the parent study Baseline value.

CYP2D6 = CYP2D6 (Homo sapiens, UniProt P10635); assay: clinical; conditions: in vivo, 4 mg
Chain of CYP2D6 (P10635 whole entry): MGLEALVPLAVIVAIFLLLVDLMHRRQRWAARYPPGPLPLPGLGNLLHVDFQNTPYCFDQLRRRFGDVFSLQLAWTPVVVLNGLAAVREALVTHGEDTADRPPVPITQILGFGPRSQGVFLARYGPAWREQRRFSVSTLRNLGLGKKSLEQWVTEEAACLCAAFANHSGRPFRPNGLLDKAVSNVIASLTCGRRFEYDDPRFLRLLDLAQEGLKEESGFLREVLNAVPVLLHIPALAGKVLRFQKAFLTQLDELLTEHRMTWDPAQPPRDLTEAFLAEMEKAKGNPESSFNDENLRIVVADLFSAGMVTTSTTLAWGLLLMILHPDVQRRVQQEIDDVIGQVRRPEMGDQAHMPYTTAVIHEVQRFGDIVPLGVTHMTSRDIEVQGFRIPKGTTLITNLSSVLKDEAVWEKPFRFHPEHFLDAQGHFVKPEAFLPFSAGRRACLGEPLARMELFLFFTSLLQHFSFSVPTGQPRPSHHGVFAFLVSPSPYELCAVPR

Cc1ccc(O)c([C@H](CCN(C(C)C)C(C)C)c2ccccc2)c1 [Tolterodine ER, tolterodine, reference compound]
Discontinued the study: Death ([1]; 40-Weeks arm): 0 n (%)
Discontinued the study: Death ([1]; 52-Weeks arm): 0 n (%)
SAEs resulting in death (not considered related by Investigator or Sponsor) ([1]; Overall groups): 0 n (%)
Discontinued the study: Death ([1]; Overall groups, Randomized Set Extension): 0 n (%)
Discontinued the study: Adverse Event ([1]; both, human, in vivo): 8 (3.4) n (%)
Patients with at least one treatment-emergent adverse event ([1]; both, human, in vivo): 126 (54.3) n (%)
Patients with at least one treatment-emergent serious AE ([1]; both, human, in vivo): 10 (4.3) n (%)
SAEs considered treatment-related by the investigator ([1]; both, human, in vivo): 2 (0.9) n (%)
SAEs: Hospitalization ([1]; both, human, in vivo): 9 (3.9) n (%)
SAEs: Other serious criteria ([1]; both, human, in vivo): 2 (0.9) n (%)
Discontinued the study: Adverse Event ([1]; both, human, in vivo, 40 weeks): 4 (4.4) n (%)
AE leading to discontinuation of study drug: Acute prerenal failure ([1]; both, human, in vivo, 52 weeks): 1 (0.4) n (%)
AE leading to discontinuation of study drug: Amnesia ([1]; both, human, in vivo, 52 weeks): 0 n (%)
AE leading to discontinuation of study drug: Any ([1]; both, human, in vivo, 52 weeks): 8 (3.4) n (%)
AE leading to discontinuation of study drug: Aortic stenosis ([1]; both, human, in vivo, 52 weeks): 1 (0.4) n (%)
AE leading to discontinuation of study drug: Atrial fibrillation ([1]; both, human, in vivo, 52 weeks): 1 (0.4) n (%)
AE leading to discontinuation of study drug: Blood creatinine increased ([1]; both, human, in vivo, 52 weeks): 0 n (%)
AE leading to discontinuation of study drug: Blood urea increased ([1]; both, human, in vivo, 52 weeks): 0 n (%)
AE leading to discontinuation of study drug: Cardiac failure ([1]; both, human, in vivo, 52 weeks): 1 (0.4) n (%)
AE leading to discontinuation of study drug: Cardiomyopathy ([1]; both, human, in vivo, 52 weeks): 1 (0.4) n (%)
AE leading to discontinuation of study drug: Chronic kidney disease ([1]; both, human, in vivo, 52 weeks): 1 (0.4) n (%)
AE leading to discontinuation of study drug: Constipation ([1]; both, human, in vivo, 52 weeks): 0 n (%)
AE leading to discontinuation of study drug: Diarrhea ([1]; both, human, in vivo, 52 weeks): 0 n (%)
AE leading to discontinuation of study drug: Dizziness ([1]; both, human, in vivo, 52 weeks): 1 (0.4) n (%)
AE leading to discontinuation of study drug: Dry eye ([1]; both, human, in vivo, 52 weeks): 1 (0.4) n (%)
AE leading to discontinuation of study drug: Dyspnoea ([1]; both, human, in vivo, 52 weeks): 1 (0.4) n (%)
AE leading to discontinuation of study drug: Haematuria ([1]; both, human, in vivo, 52 weeks): 1 (0.4) n (%)
AE leading to discontinuation of study drug: Headache ([1]; both, human, in vivo, 52 weeks): 1 (0.4) n (%)
AE leading to discontinuation of study drug: Intervertebral disc degeneration ([1]; both, human, in vivo, 52 weeks): 1 (0.4) n (%)
AE leading to discontinuation of study drug: Mitral valve incompetence ([1]; both, human, in vivo, 52 weeks): 1 (0.4) n (%)
AE leading to discontinuation of study drug: Osteoarthritis ([1]; both, human, in vivo, 52 weeks): 1 (0.4) n (%)
AE leading to discontinuation of study drug: Pulmonary embolism ([1]; both, human, in vivo, 52 weeks): 1 (0.4) n (%)
AE leading to discontinuation of study drug: Sinus tachycardia ([1]; both, human, in vivo, 52 weeks): 1 (0.4) n (%)
AE leading to discontinuation of study drug: Tricuspid valve incompetence ([1]; both, human, in vivo, 52 weeks): 1 (0.4) n (%)
AE: Anaemia ([1]; both, human, in vivo, 52 weeks): 2 (0.9) n (%)
AE: Atrial fibrillation ([1]; both, human, in vivo, 52 weeks): 1 (0.4) n (%)
AE: Back pain ([1]; both, human, in vivo, 52 weeks): 3 (1.3) n (%)
AE: Blood pressure increased ([1]; both, human, in vivo, 52 weeks): 4 (1.7) n (%)
AE: Bronchitis ([1]; both, human, in vivo, 52 weeks): 3 (1.3) n (%)
AE: Constipation ([1]; both, human, in vivo, 52 weeks): 6 (2.6) n (%)
AE: Diarrhea ([1]; both, human, in vivo, 52 weeks): 4 (1.7) n (%)
AE: Dizziness ([1]; both, human, in vivo, 52 weeks): 2 (0.9) n (%)
AE: Dry mouth ([1]; both, human, in vivo, 52 weeks): 12 (5.2) n (%)
AE: Fatigue ([1]; both, human, in vivo, 52 weeks): 0 n (%)
AE: Headache ([1]; both, human, in vivo, 52 weeks): 9 (3.9) n (%)
AE: Hyperglycemia ([1]; both, human, in vivo, 52 weeks): 2 (0.9) n (%)
AE: Hypertension ([1]; both, human, in vivo, 52 weeks): 20 (8.6) n (%)
AE: Hypotension ([1]; both, human, in vivo, 52 weeks): 0 n (%)
AE: Musculoskeletal pain ([1]; both, human, in vivo, 52 weeks): 1 (0.4) n (%)
AE: Nasopharyngitis ([1]; both, human, in vivo, 52 weeks): 12 (5.2) n (%)
AE: Nausea ([1]; both, human, in vivo, 52 weeks): 7 (3.0) n (%)
AE: Residual urine volume increased ([1]; both, human, in vivo, 52 weeks): 3 (1.3) n (%)
AE: Syncope ([1]; both, human, in vivo, 52 weeks): 1 (0.4) n (%)
AE: Tachycardia (Sinus Tachycardia) ([1]; both, human, in vivo, 52 weeks): 1 (0.4) n (%)
AE: Upper respiratory tract infection ([1]; both, human, in vivo, 52 weeks): 1 (0.4) n (%)
AE: Urinary retention ([1]; both, human, in vivo, 52 weeks): 1 (0.4) n (%)
AE: Urinary tract infection ([1]; both, human, in vivo, 52 weeks): 17 (7.3) n (%)
Discontinued the study: Adverse Event ([1]; both, human, in vivo, 52 weeks): 4 (2.8) n (%)
AUC(0-t) (CYP2D6): 28.4 ng·h/mL
half-life (CYP2D6): 10 h
